From patent publication US3954972A, “Antibiotic A-26771 factor” (Eli Lilly and Company, priority 1975, dated 1976)
“Also recorded” adds a separate entry of the source. Like-named read-outs stand apart in the source and are kept apart here.

Legend:
Type III poliovirus = assay: microbe, parasite or virus in culture; format: cell-based
[1] = tested on: Coxsackie virus A-21 (COE strain); assay: microbe, parasite or virus in culture; format: cell-based; settings: read-out: diameter of zone of virus inhibition
[2] = tested on: several viruses, including polioviruses and Coxsackie virus; format: cell-based
Staphylococcus aureus [3] = assay: microbe, parasite or virus in culture; format: cell-based
Bacillus subtilis = assay: microbe, parasite or virus in culture; format: cell-based
Sarcina lutea = assay: microbe, parasite or virus in culture; format: cell-based; settings: Micrococcus luteus
[4] = tested on: Saccharomyces pastorianum; assay: microbe, parasite or virus in culture; format: cell-based
Neurospora crassa = assay: microbe, parasite or virus in culture; format: cell-based
[5] = tested on: Trichophyton mentagrophytes; assay: microbe, parasite or virus in culture; format: cell-based
Botrytis cinerea = assay: in vitro susceptibility (MIC), Botrytis cinerea; format: cell-based
Ceratocystis ulmi = assay: in vitro susceptibility (MIC), Ceratocystis ulmi; format: cell-based
Verticillium albo-atrum = assay: in vitro susceptibility (MIC), Verticillium albo-atrum; format: cell-based
Staphylococcus aureus [6] = assay: microbe, parasite or virus in culture
Streptococcus faecalis = assay: microbe, parasite or virus in culture; settings: Enterococcus faecalis
Vibrio coli = assay: microbe, parasite or virus in culture; settings: Campylobacter coli
Mycoplasma gallisepticum = assay: microbe, parasite or virus in culture; settings: Mycoplasmoides gallisepticum
Mycoplasma granularum = assay: microbe, parasite or virus in culture; settings: Acholeplasma granularum
Mycoplasma synoviae = assay: microbe, parasite or virus in culture; settings: Mycoplasmopsis synoviae
Mycoplasma hyosynoviae = assay: microbe, parasite or virus in culture
Mycoplasma hyopneumoniae = assay: microbe, parasite or virus in culture; settings: Mesomycoplasma hyopneumoniae
Erwinia amylovora = assay: microbe, parasite or virus in culture
Pasteurella multocida = assay: microbe, parasite or virus in culture
Xanthomonas phaseoli = assay: microbe, parasite or virus in culture
Candida tropicalis = assay: microbe, parasite or virus in culture
[7] = tested on: Trichophyton mentagrophytes; assay: microbe, parasite or virus in culture
Mycobacterium avium = assay: disc-plate assay, Mycobacterium avium; format: cell-based
Escherichia coli = assay: microbe, parasite or virus in culture; format: cell-based
Klebsiella pneumoniae = assay: microbe, parasite or virus in culture; format: cell-based
Serratia marcescens = assay: microbe, parasite or virus in culture; format: cell-based
Candida albicans = assay: microbe, parasite or virus in culture; format: cell-based
Fusarium moniliforme = assay: microbe, parasite or virus in culture; format: cell-based; settings: Fusarium verticillioides
poliovirus III = format: in vivo, mice; settings: for Z (zone diameter of viral inhibition by serum): BSC1 cells
electrometric titration = format: physicochemical; settings: 66 percent dimethylformamide
White Swiss mice = assay: survival of mice after intraperitoneal injection; settings: groups of four mice
[8] = Enterovirus C; read-out: diameter of zone of virus inhibition
[9] = Enterovirus C, read-out: diameter of zone of virus inhibition
[10] = 29 mg./kg. intraperitoneal, One Hour
[11] = 29 mg./kg. intraperitoneal, Six Hours
[12] = 58 mg./kg. intraperitoneal, One Hour
[13] = 58 mg./kg. intraperitoneal, Six Hours
[14] = 117 mg./kg. intraperitoneal, One Hour
[15] = 234 mg./kg. intraperitoneal, One Hour

## CN1C(=O)C2(Cc3ccccc3)SSSSC1(CO)C(=O)N2C (centres unmarked) [Factor C, 3-benzyl-6-(hydroxymethyl)-1,4-dimethyl-3,6-epitetrathio-2,5-piperazinedione]
Type III poliovirus; [8]
  zone of inhibition at 100 µg/mL: 40 mm
  zone of inhibition at 1000 µg/mL: 50 mm
[1]
  zone of inhibition at 100 µg/mL: 40 mm
  zone of inhibition at 1000 µg/mL: 50 mm
[2]
  antiviral activity: demonstrated against several viruses, including polioviruses and Coxsackie virus; also recorded: antiviral agents; also recorded: antiviral activity

## CC1CCCCCCCCCC(OC(=O)CCC(=O)O)C(=O)/C=C/C(=O)O1 (centres unmarked) [Factor B, mono(16-methyl-2,5-dioxooxacyclohexadec-3-en-6-yl) succinate]
Staphylococcus aureus [3]
  zone of inhibition at 100 µg/mL: 15 mm
  zone of inhibition at 1000 µg/mL: 24 mm
Bacillus subtilis
  zone of inhibition at 1000 µg/mL: 14 mm
Sarcina lutea
  zone of inhibition at 100 µg/mL: 12 mm
  zone of inhibition at 1000 µg/mL: 22 mm
[4]
  zone of inhibition at 100 µg/mL: 12 mm
  zone of inhibition at 1000 µg/mL: 25 mm
Neurospora crassa
  zone of inhibition at 1000 µg/mL: 13 mm
[5]
  zone of inhibition at 1000 µg/mL: 14 mm
Botrytis cinerea
  MIC: 12.5 µg/mL
Ceratocystis ulmi
  MIC: 6.25 µg/mL
Verticillium albo-atrum
  MIC: 50 µg/mL
Staphylococcus aureus [6]
  MIC: < 1.56 µg/mL
Streptococcus faecalis
  MIC: 25 µg/mL
Vibrio coli
  MIC: 50 µg/mL
Mycoplasma gallisepticum
  MIC: 3.12 µg/mL
Mycoplasma granularum
  MIC: 50 µg/mL
Mycoplasma synoviae
  MIC: 12.5 µg/mL
Mycoplasma hyosynoviae
  MIC: 12.5 µg/mL
Mycoplasma hyopneumoniae
  MIC: 12.5 µg/mL
Erwinia amylovora
  MIC: < 0.78 µg/mL
Pasteurella multocida
  MIC: 6.25 µg/mL
Xanthomonas phaseoli
  MIC: 50 µg/mL
Candida tropicalis
  MIC: 100 µg/mL
[7]
  MIC: 6.25 µg/mL

## CN1C(=O)C2(Cc3ccccc3)SSC1(CO)C(=O)N2C (single isomer, unassigned) [Factor A, 3-benzyl-6-(hydroxymethyl)-1,4-dimethyl-3,6-epidithio-2,5-piperazinedione]
Staphylococcus aureus [3]
  zone of inhibition at 100 µg/mL: 12 mm
  zone of inhibition at 1000 µg/mL: 23 mm
Mycobacterium avium
  zone of inhibition at 1000 µg/mL: 14 mm
Bacillus subtilis
  zone of inhibition at 100 µg/mL: 11 mm
  zone of inhibition at 1000 µg/mL: 22 mm
Sarcina lutea
  zone of inhibition at 100 µg/mL: 18 mm
  zone of inhibition at 1000 µg/mL: 28 mm
Escherichia coli
  zone of inhibition at 1000 µg/mL: 12 mm
Klebsiella pneumoniae
  zone of inhibition at 1000 µg/mL: 12 mm
Serratia marcescens
  zone of inhibition at 1000 µg/mL: 14 mm
[4]
  zone of inhibition at 100 µg/mL: 19 mm
  zone of inhibition at 1000 µg/mL: 32 mm
Neurospora crassa
  zone of inhibition at 100 µg/mL: 13 mm
  zone of inhibition at 1000 µg/mL: 27 mm
Candida albicans
  zone of inhibition at 1000 µg/mL: 28 mm
Fusarium moniliforme
  zone of inhibition at 100 µg/mL: 10 mm
  zone of inhibition at 1000 µg/mL: 14 mm
[5]
  zone of inhibition at 100 µg/mL: 19 mm
  zone of inhibition at 1000 µg/mL: 27 mm
Type III poliovirus; [9]
  zone of inhibition at 1.5 µg/mL: 16 mm
  zone of inhibition at 3.2 µg/mL: 24 mm
  zone of inhibition at 7.5 µg/mL: 30 mm
  zone of inhibition at 15 µg/mL: 34 mm
  zone of inhibition at 31.1 µg/mL: 38 mm
  zone of inhibition at 62.2 µg/mL: 40 mm
  zone of inhibition at 125 µg/mL: 44 mm
  zone of inhibition at 250 µg/mL: 46 mm
  zone of inhibition at 500 µg/mL: 50 mm
  zone of inhibition at 1000 µg/mL: 50 mm
[1]
  zone of inhibition at 1.5 µg/mL: 15 mm
  zone of inhibition at 3.2 µg/mL: 20 mm
  zone of inhibition at 7.5 µg/mL: 26 mm
  zone of inhibition at 15 µg/mL: 32 mm
  zone of inhibition at 31.1 µg/mL: 35 mm
  zone of inhibition at 62.2 µg/mL: 38 mm
  zone of inhibition at 125 µg/mL: 40 mm
  zone of inhibition at 250 µg/mL: 45 mm
  zone of inhibition at 500 µg/mL: 50 mm
  zone of inhibition at 1000 µg/mL: 52 mm
Poliovirus III; [10]
  Z (zone diameter of viral inhibition by serum): 20 millimeters
Poliovirus III; [11]
  Z (zone diameter of viral inhibition by serum): 18 millimeters
Poliovirus III; [12]
  Z (zone diameter of viral inhibition by serum): 24 millimeters
Poliovirus III; [13]
  Z (zone diameter of viral inhibition by serum): 23 millimeters
Poliovirus III; [14]
  Z (zone diameter of viral inhibition by serum): 29 millimeters
Poliovirus III; [15]
  Z (zone diameter of viral inhibition by serum): 30 millimeters
Poliovirus III; biological activity of serum levels in mice
  antiviral activity in vivo: demonstrated in vivo from the biological activity of serum levels in mice
Electrometric titration
  titratable groups: did not indicate the presence of titratable groups
[2]; tissue culture
  antiviral activity: demonstrated against several viruses, including polioviruses and Coxsackie virus; also recorded: antiviral agents; also recorded: antiviral activity
White Swiss mice; [10]
  Survivors: 4
White Swiss mice; [11]
  Survivors: 4
White Swiss mice; [12]
  Survivors: 4
White Swiss mice; [13]
  Survivors: 4
White Swiss mice; [14]
  Survivors: 4
White Swiss mice; 117 mg./kg. intraperitoneal, Six Hours
  Survivors: 0
White Swiss mice; [15]
  Survivors: 4
White Swiss mice; 234 mg./kg. intraperitoneal, Six Hours
  Survivors: 0
